Bridge positions count the residues as written; N and C are the ends. Square brackets hold non-standard residues; d marks the D form. Peptide text beside a SMILES is read from it.

For assay [1], the system named is H3N8 A/Miami/2/63. Particulars: A/Miami/2/63, 48 h, 500 μM.
The subject of assay [2] is H1N1 A1/Malaysia/302/1954. Conditions: A1/Malaysia/302/1954, 48 h, 500 μM.
The subject of assay [3] is H9N2 A/Iran/16/2000. Conditions: 48 h, 500 μM.

With `CC[C@@H](C)[C@H]1NC(=O)[C@@H](Cc2ccccc2)NC(=O)[C@@H](CCCNC(=N)N)NC(=O)[C@@H](CO)NC(=O)[C@@H](CC(C)C)NC(=O)[C@@H]([C@H](C)O)NC(=O)[C@H](NC(=O)[C@@H](CCCCN)NC(=O)[C@@H](CCCCN)NC(=O)[C@@H](CCCNC(=N)N)NC(=O)[C@H](N)CCCNC(=N)N)CSSC[C@H](C(=O)O)NC(=O)[C@@H](CC(N)=O)NC1=O` [PSP II A10, H-rrkkctisrfinc-OH] (H-[dR][dR][dK][dK][dC][dT][dL][dS][dR][dF][dI][dN][dC]-OH; disulfide 5-13), in assay [1], the “% inhibition H3N8” value turned out to be 88.9%. In assay [2], the “% inhibition H1N1” value turned out to be 63.5%. The “% inhibition H9N2” value in assay [3] came out at 40%.

For the compound `CC[C@@H](C)[C@H]1NC(=O)[C@@H](Cc2ccccc2)NC(=O)[C@@H](CCCNC(=N)N)NC(=O)[C@@H](CO)NC(=O)[C@@H](CCC(=O)O)NC(=O)[C@@H]([C@H](C)O)NC(=O)[C@H](NC(=O)[C@@H](CCCCN)NC(=O)[C@@H](CCCCN)NC(=O)[C@@H](CCCNC(=N)N)NC(=O)[C@H](N)CCCNC(=N)N)CSSC[C@H](C(=O)O)NC(=O)[C@@H](CC(N)=O)NC1=O` [PSP II A4, H-rrkkctesrfinc-OH] (H-[dR][dR][dK][dK][dC][dT][dE][dS][dR][dF][dI][dN][dC]-OH; disulfide 5-13), in assay [1], the “% inhibition H3N8” value is on record as 74.1%. The “% inhibition H1N1” value in assay [2] is on record as 36.2%. For the same compound, the “% inhibition H9N2” value in assay [3] is listed as 60%.

Consider `C[C@H](O)[C@H]1NC(=O)[C@H](N)CSSC[C@H](C(=O)O)NC(=O)[C@@H](CC(N)=O)NC(=O)[C@@H](CCC(N)=O)NC(=O)[C@@H](Cc2ccccc2)NC(=O)[C@@H](CCCNC(=N)N)NC(=O)[C@@H](CO)NC(=O)[C@@H](CCCCN)NC1=O` [PSP 14, H-ctksrfqnc-OH] (H-[dC][dT][dK][dS][dR][dF][dQ][dN][dC]-OH; disulfide 1-9), for which the “% inhibition H3N8” value in assay [1] is 62.9%. Further, the “% inhibition H1N1” value in assay [2] came to 23.1%. In addition, the “% inhibition H9N2” value in assay [3] stood at 18.2%.

Regarding `C[C@H](O)[C@H]1NC(=O)[C@H](N)CSSC[C@H](C(=O)O)NC(=O)[C@@H](CC(N)=O)NC(=O)[C@@H]([C@H](C)O)NC(=O)[C@@H](Cc2ccccc2)NC(=O)[C@@H](CCCNC(=N)N)NC(=O)[C@@H](CO)NC(=O)[C@@H](CCCCN)NC1=O` [PSP 17, H-ctksrftnc-OH] (H-[dC][dT][dK][dS][dR][dF][dT][dN][dC]-OH; disulfide 1-9), the “% inhibition H3N8” value in assay [1] worked out at 74.2%. The “% inhibition H1N1” value in assay [2] came out at 30.8%. The “% inhibition H9N2” value in assay [3] is 9.1%.

Consider `CC[C@@H](C)[C@H]1NC(=O)[C@@H](Cc2ccccc2)NC(=O)[C@@H](CCCNC(=N)N)NC(=O)[C@@H](CO)NC(=O)[C@@H]([C@H](C)CC)NC(=O)[C@@H]([C@H](C)O)NC(=O)[C@H](NC(=O)[C@@H](CCCCN)NC(=O)[C@@H](CCCCN)NC(=O)[C@@H](CCCNC(=N)N)NC(=O)[C@H](N)CCCNC(=N)N)CSSC[C@H](C(=O)O)NC(=O)[C@@H](CC(N)=O)NC1=O` [PSP II A8, H-rrkkctisrfinc-OH] (H-[dR][dR][dK][dK][dC][dT][dI][dS][dR][dF][dI][dN][dC]-OH; disulfide 5-13), for which the “% inhibition H3N8” value in assay [1] is 77.8%. Also, in assay [2], the “% inhibition H1N1” value came to 75%. For the same compound, the “% inhibition H9N2” value in assay [3] is 20%.

For `CC[C@@H](C)[C@H]1NC(=O)[C@@H](Cc2ccccc2)NC(=O)[C@@H](CCCNC(=N)N)NC(=O)[C@@H](CO)NC(=O)[C@@H](CO)NC(=O)[C@@H]([C@H](C)O)NC(=O)[C@H](NC(=O)[C@@H](CCCCN)NC(=O)[C@@H](CCCCN)NC(=O)[C@@H](CCCNC(=N)N)NC(=O)[C@H](N)CCCNC(=N)N)CSSC[C@H](C(=O)O)NC(=O)[C@@H](CC(N)=O)NC1=O` [PSP II A16, H-rrkkctssrfinc-OH] (H-[dR][dR][dK][dK][dC][dT][dS][dS][dR][dF][dI][dN][dC]-OH; disulfide 5-13), in assay [1], the “% inhibition H3N8” value was found to be 61.8%. Moreover, in assay [2], the “% inhibition H1N1” value is listed as 61.5%. In addition, the “% inhibition H9N2” value in assay [3] was determined as 90%.
